Results reported in patent US7589173B2, “Methods for diagnosing cancer and decreasing metastasis by cancer cells” (The Scripps Research Institute, priority 2003, dated 2009).

Tested on: SIMA135 tyrosine phosphorylation
Conditions: PP2 50 μM, 30 minutes at 37° C, serum free DMEM
Method: Cell lysates, serum free conditioned media and immunoprecipitated proteins were separated by electrophoresis through 8% SDS-polyacrylamide gels then transferred to nitrocellulose membranes (Millipore). […] Following extensive washing membranes were incubated for 2 hr at room temperature with goat anti-mouse IgG (0.16 μg/ml, Pierce, Rockford, Il) and immunoreactive bands detected by enhanced chemiluminescence (Pierce).
For analysis of the basal level of tyrosine phosphorylation of SIMA135, subconfluent cultures of HEp3 and HeLa (as negative control) cells were incubated at 37° C. for 30 min with serum free DMEM containing 50 mM NaF and 1 mM Na3VO4 then washed with ice cold PBS. For inhibition of Src kinase family phosphorylation, HEp3 cells were cultured in serum free DMEM without NaF and Na3VO4 for 30 minutes at 37° C. with PP2 (50 μM). Cells were then lysed in ice cold buffer containing 50 mM Tris (pH 7.4), 150 mM NaCl, 1% Triton X-100, 1 mM phenylmethylsulfonyl fluoride, 1 mM benzamidine, 25 μg/ml aprotinin, 25 μg/ml leupeptin, 50 mM NaF and 1 mM Na3VO4. Insoluble material was removed by centrifugation at 14000 rpm for 10 min. […] Cells lysates were collected as described above.

CC(C)(C)n1nc(-c2ccc(Cl)cc2)c2c(N)ncnc21 [PP2]
reduction in the level of SIMA135 tyrosine phosphorylation compared to untreated HEp3 cells: ~75%
